Test: xn = mol fraction of the nth substance listed

Oc1ccccc1Cl + Nc1ccccc1
101 kPa
Conditions | viscosity [mPa·s]
293.15 K, x1 = 0.1176 | 5.78
293.15 K, x1 = 0.2278 | 7.74
293.15 K, x1 = 0.3271 | 9.6
293.15 K, x1 = 0.3874 | 10.56
293.15 K, x1 = 0.4366 | 11.24
293.15 K, x1 = 0.4885 | 11.66
293.15 K, x1 = 0.5271 | 11.76
293.15 K, x1 = 0.5756 | 11.48
293.15 K, x1 = 0.6117 | 10.96
293.15 K, x1 = 0.7174 | 9.04
293.15 K, x1 = 0.8625 | 6.3
298 K, x1 = 0.1032 | 4.945
298 K, x1 = 0.2004 | 6.157
298 K, x1 = 0.3011 | 7.228
298 K, x1 = 0.4069 | 8.07
298 K, x1 = 0.5008 | 8.81
298 K, x1 = 0.6002 | 8
298 K, x1 = 0.7016 | 6.99
298 K, x1 = 0.7852 | 5.942
298 K, x1 = 0.9025 | 4.443
303 K, x1 = 0.1032 | 4.142
303 K, x1 = 0.2004 | 5.008
303 K, x1 = 0.3011 | 5.792
303 K, x1 = 0.4069 | 6.329
303 K, x1 = 0.5008 | 6.859
303 K, x1 = 0.6002 | 6.232
303 K, x1 = 0.7016 | 5.602
303 K, x1 = 0.7852 | 4.74
303 K, x1 = 0.9025 | 3.702
303.15 K, x1 = 0.1176 | 4.05
303.15 K, x1 = 0.2278 | 5.06
303.15 K, x1 = 0.3271 | 5.93
303.15 K, x1 = 0.3874 | 6.39
303.15 K, x1 = 0.4366 | 6.72
303.15 K, x1 = 0.4885 | 6.93
303.15 K, x1 = 0.5271 | 6.95
303.15 K, x1 = 0.5756 | 6.86
303.15 K, x1 = 0.6117 | 6.7
303.15 K, x1 = 0.7174 | 5.8
303.15 K, x1 = 0.8625 | 4.31
308 K, x1 = 0.1032 | 3.556
308 K, x1 = 0.2004 | 4.265
308 K, x1 = 0.3011 | 4.728
308 K, x1 = 0.4069 | 4.979
308 K, x1 = 0.5008 | 5.417
308 K, x1 = 0.6002 | 4.922
308 K, x1 = 0.7016 | 4.511
308 K, x1 = 0.7852 | 3.826
308 K, x1 = 0.9025 | 3.108
313 K, x1 = 0.1032 | 3.11
313 K, x1 = 0.2004 | 3.638
313 K, x1 = 0.3011 | 3.9
313 K, x1 = 0.4069 | 4.024
313 K, x1 = 0.5008 | 4.382
313 K, x1 = 0.6002 | 3.966
313 K, x1 = 0.7016 | 3.75
313 K, x1 = 0.7852 | 3.283
313 K, x1 = 0.9025 | 2.744
313.15 K, x1 = 0.1176 | 2.945
313.15 K, x1 = 0.2278 | 3.54
313.15 K, x1 = 0.3271 | 3.99
313.15 K, x1 = 0.3874 | 4.2
313.15 K, x1 = 0.4366 | 4.33
313.15 K, x1 = 0.4885 | 4.39
313.15 K, x1 = 0.5271 | 4.4
313.15 K, x1 = 0.5756 | 4.34
313.15 K, x1 = 0.6117 | 4.24
313.15 K, x1 = 0.7174 | 3.79
313.15 K, x1 = 0.8625 | 3.01
318 K, x1 = 0.1032 | 2.671
318 K, x1 = 0.2004 | 3.036
318 K, x1 = 0.3011 | 3.241
318 K, x1 = 0.4069 | 3.322
318 K, x1 = 0.5008 | 3.611
318 K, x1 = 0.6002 | 3.27
318 K, x1 = 0.7016 | 3.137
318 K, x1 = 0.7852 | 2.853
318 K, x1 = 0.9025 | 2.446

C[NH2+]C(C)Cc1ccc2c(c1)OCO2.[Cl-] (stereo unspecified) + O
viscosity [mPa·s], 100 kPa
Conditions | 293.15 K | 298.15 K | 303.15 K | 308.15 K | 313.15 K
x1 = 0.001729 | 1.063 | 0.942 | 0.842 | 0.758 | 0.686
x1 = 0.003622 | 1.125 | 0.995 | 0.888 | 0.798 | 0.721
x1 = 0.00541 | 1.18 | 1.042 | 0.929 | 0.834 | 0.752
x1 = 0.006269 | 1.206 | 1.065 | 0.949 | 0.851 | 0.767
x1 = 0.0072 | 1.233 | 1.088 | 0.969 | 0.869 | 0.783

Cn1c(=O)c2c(ncn2C)n(C)c1=O + O
Conditions | viscosity [mPa·s]
293.15 K, 100 kPa, x1 = 0.000362 | 1.007
293.15 K, 100 kPa, x1 = 0.00054 | 1.01
293.15 K, 100 kPa, x1 = 0.00072 | 1.013
293.15 K, 100 kPa, x1 = 0.0009 | 1.018
293.15 K, 100 kPa, x1 = 0.00108 | 1.022
293.15 K, 100 kPa, x1 = 0.00126 | 1.027
293.15 K, 100 kPa, x1 = 0.00144 | 1.031
298.15 K, 100 kPa, x1 = 0.000362 | 0.892
298.15 K, 100 kPa, x1 = 0.00054 | 0.897
298.15 K, 100 kPa, x1 = 0.00072 | 0.901
298.15 K, 100 kPa, x1 = 0.0009 | 0.903
298.15 K, 100 kPa, x1 = 0.00144 | 0.916
298.15 K, 101 kPa, x1 = 9.11e-06 | 0.8903
298.15 K, 101 kPa, x1 = 1.822e-05 | 0.8906
298.15 K, 101 kPa, x1 = 7.288e-05 | 0.8912
298.15 K, 101 kPa, x1 = 0.0001457 | 0.8921
298.15 K, 101 kPa, x1 = 0.0001858 | 0.8928
298.15 K, 101 kPa, x1 = 0.0002 | 0.8925
298.15 K, 101 kPa, x1 = 0.0002277 | 0.8933
298.15 K, 101 kPa, x1 = 0.00045 | 0.8973
298.15 K, 101 kPa, x1 = 0.0004553 | 0.8967
298.15 K, 101 kPa, x1 = 0.000835 | 0.9028
298.15 K, 101 kPa, x1 = 0.0009102 | 0.904
298.15 K, 101 kPa, x1 = 0.00168 | 0.9204
298.15 K, 101 kPa, x1 = 0.001827 | 0.9238
303.15 K, 100 kPa, x1 = 0.000362 | 0.799
303.15 K, 100 kPa, x1 = 0.00054 | 0.802
303.15 K, 100 kPa, x1 = 0.00072 | 0.805
303.15 K, 100 kPa, x1 = 0.0009 | 0.809
303.15 K, 100 kPa, x1 = 0.00108 | 0.812
303.15 K, 100 kPa, x1 = 0.00126 | 0.815
303.15 K, 100 kPa, x1 = 0.00144 | 0.819
308.15 K, 100 kPa, x1 = 0.000362 | 0.72
308.15 K, 100 kPa, x1 = 0.00072 | 0.725
308.15 K, 100 kPa, x1 = 0.00144 | 0.738
308.15 K, 101 kPa, x1 = 0.0002 | 0.7216
308.15 K, 101 kPa, x1 = 0.000508 | 0.7219
308.15 K, 101 kPa, x1 = 0.000835 | 0.7263
308.15 K, 101 kPa, x1 = 0.00106 | 0.7314
308.15 K, 101 kPa, x1 = 0.00168 | 0.7421
308.15 K, 101 kPa, x1 = 0.001827 | 0.7443
310.15 K, 101 kPa, x1 = 9.11e-06 | 0.6928
310.15 K, 101 kPa, x1 = 1.822e-05 | 0.6933
310.15 K, 101 kPa, x1 = 7.288e-05 | 0.6952
310.15 K, 101 kPa, x1 = 0.0001457 | 0.6977
310.15 K, 101 kPa, x1 = 0.0001858 | 0.6998
310.15 K, 101 kPa, x1 = 0.0002277 | 0.7014
310.15 K, 101 kPa, x1 = 0.0004553 | 0.7104
310.15 K, 101 kPa, x1 = 0.0009102 | 0.7283
313.15 K, 100 kPa, x1 = 0.000362 | 0.652
313.15 K, 100 kPa, x1 = 0.00054 | 0.655
313.15 K, 100 kPa, x1 = 0.00072 | 0.657
313.15 K, 100 kPa, x1 = 0.0009 | 0.66
313.15 K, 100 kPa, x1 = 0.00108 | 0.663
313.15 K, 100 kPa, x1 = 0.00126 | 0.665
313.15 K, 100 kPa, x1 = 0.00144 | 0.669
318.15 K, 101 kPa, x1 = 0.0002 | 0.5982
318.15 K, 101 kPa, x1 = 0.000508 | 0.6031
318.15 K, 101 kPa, x1 = 0.000835 | 0.6101
318.15 K, 101 kPa, x1 = 0.00106 | 0.6182
318.15 K, 101 kPa, x1 = 0.00139 | 0.6272
318.15 K, 101 kPa, x1 = 0.00168 | 0.6353
318.15 K, 101 kPa, x1 = 0.001827 | 0.6393
